Assay results published in patent publication US12263175B2, “Optimised dosage of diaminophenothiazines in populations” (WisTa Laboratories Ltd., priority 2018, dated 2025).
Where “and” joins values, the source holds several entries; their conditions need not be identical. Identical values can stand only once. Like-named read-outs stand apart in the source and are kept apart here.

Columns and labels:
[1] = Population PK model estimate of steady-state parent MT Cmax in AD patients (Studies 005 and 015); assay type: in vivo, human; settings: for Cmax: human, plasma, oral
From the text: This, the PK model was then further developed and simplified to a two compartment model fit to the parent MT concentrations only. This model has a fixed Vc, but the dose-dependent Ka is removed.
This model was derived from Study 036 discussed above. The disposition of parent MT post PO administration of LMTM was adequately described by a two-compartment model with and a delayed absorption occurring through two transit compartments. Apparent oral clearance (CL/F) of parent MT was related to renal function such that a small portion of the variability in parent CL is described by normalized creatinine clearance (CLCRN).
The population PK model was then used to estimate Cmax of parent MT in the patients who received 4 mg or high dose (c. 200 mg/day) in these Phase 3 AD studies. This Bayesian process involved fixing the population mean and inter-individual variability parameters to the estimates from the fit of the population PK model to the steady-state data from Study 036 and allowing the program to select a set of parameters, given those Bayesian priors, which best predicts the parent MT concentrations from Day 1 in each individual.
(§1) That threshold was <0.373 ng/mL.
Higher doses were grouped according to dose (N=187-329 per group).
Since only 65% of patients receiving the 8 mg/day have plasma concentrations above the threshold required for significant treatment benefit, it is desirable to determine the minimum dose at which 100% patients would be expected to have plasma levels within the therapeutic range.

[2] = test system: AD patients; assay: Phase 3 AD studies 005 and 015: clinical and MRI volumetric endpoints by Cmax,ss group; assay type: in vivo, human; settings: for EC50: Homo sapiens, 10920 h, ADAS-cog over 65 weeks, read-out: Cmax,ss concentration required for half-maximal treatment response
Method: The trial design for the Phase 3 AD studies “005” and “015” are described in Examples 4 and 3 respectively of WO2018/019823, which Examples also discuss those results. The disclosure of those Examples is specifically incorporated herein by reference. Briefly, those Phase 3 trials compared high doses of LMTM (150-250 mg/day) with a low dose (8 mg/day) intended as a mask for potential urine discolouration (Gauthier 2016; Wilcock 2018).
The results are shown in FIGS. 3a and 3b which show the same data. Patients using symptomatic treatments are labelled “Achmem”.
as §1
A further analysis of ADAS-cog decline over 65 weeks was undertaken using a modified form of the Hill equation (Wagner, 1968) in order to estimate the minimum and maximum plasma concentrations for expected treatment response over 65 weeks. […] In addition, a linear term was added to permit trends occurring at high concentrations to be included in the model using data for doses in the range 150-250 mg/day. The expanded Hill equation was applied to the data in the form: change in parameter=Emin−(Emax*([C]−0.29))/(EC50+([C]−0.29))+(A*([C]−0.29)) where Emin is the imposed zero value, Emax is the maximum treatment effect assumed in the standard Hill equation, EC50 is the Cmax,ss at which the treatment effect is 50% of the maximum assumed in the standard Hill equation and A is a further linear term estimated by the model to take account of a potential biphasic response. […] The dose range in which the treatment response is estimated to be maximal is 20-60 mg/day.

[3] = A. All patients split by Cmax,ss 0.373 ng/mL, over 65 weeks
[4] = B. Patients receiving LMTM, 8 mg/day, over 65 weeks
[5] = LMTM, 8 mg/day, as add-on therapy (AChEI and/or memantine), over 65 weeks
[6] = LMTM, 8 mg/day, as monotherapy, over 65 weeks
[7] = LMTM, 8 mg/day, threshold 0.373 ng/ml, over 65 weeks

Compound: CN(C)c1ccc2c(c1)Sc1cc(N(C)C)ccc1N2 [LMTM, leuco-methylthioninium bis(hydromethanesulfonate)]
- Proportion of subjects above Cmax threshold ([1]; 4 mg bid): 50%
- Critical therapeutic threshold for Cave,ss ([1]; AD patients): 0.223 ng/mL
- Critical therapeutic threshold for Cmax,ss ([1]; AD patients): 0.393 ng/mL
- Patients with plasma concentrations above the threshold required for significant treatment benefit ([1]; AD patients receiving 8 mg/day): 65%
- Plasma-modelled parent MT Cmax,ss Mean (SD) ([1]; AD, studies TRx-237-015 and TRx-237-005, 8 mg/day - Group 2): 0.393 (0.0125) ng/mL
- Dose for 100% of patients to have plasma levels in the therapeutic range ([1]; AD, QD or BID, either Cmax,ss or Cave,ss criterion): at least 16 mg/day
- Proportion of subjects achieving Cmax above the median-derived threshold value ([1]; dosing above 20 mg MT (e.g. as LMTM), depends on number of split doses): 90 to 100%
- Cmax ([1]; 8 mg/day, AD patients receiving LMTM 8 mg/day, read-out: Cmax,ss threshold, upper limit of the lowest 35% of patients): < 0.373 ng/mL
- Cmax ([1]; 8 mg/day, AD, studies TRx-237-015 and TRx-237-005, 8 mg/day - Group 1, read-out: Plasma-modelled parent MT Cmax,ss Range): 0.257 to 0.373 ng/mL
- Cmax ([1]; 8 mg/day, AD, studies TRx-237-015 and TRx-237-005, 8 mg/day - Group 2, read-out: Plasma-modelled parent MT Cmax,ss Range): 0.373 to 0.414 ng/mL
- Cmax ([1]; 8 mg/day, AD, studies TRx-237-015 and TRx-237-005, 8 mg/day - Group 3, read-out: Plasma-modelled parent MT Cmax,ss Range): 0.415 to 0.478 ng/mL
- Cmax ([1]; 8 mg/day, AD, studies TRx-237-015 and TRx-237-005, 8 mg/day - Group 4, read-out: Plasma-modelled parent MT Cmax,ss Range): 0.479 to 0.812 ng/mL
- Cmax ([1]; 150 mg/day, AD, studies TRx-237-015 and TRx-237-005, 150 mg/day, read-out: Plasma-modelled parent MT Cmax,ss Range): 5.1 to 18.6 ng/mL
- Cmax ([1]; 200 mg/day, AD, studies TRx-237-015 and TRx-237-005, 200 mg/day, read-out: Plasma-modelled parent MT Cmax,ss Range): 6.56 to 21.3 ng/mL
- Cmax ([1]; 250 mg/day, AD, studies TRx-237-015 and TRx-237-005, 250 mg/day, read-out: Plasma-modelled parent MT Cmax,ss Range): 8.83 to 21.2 ng/mL
- Estimated proportion of subjects above Cmax threshold ([1]; ˜20 mg/day (10 mg bid)): ~100%
- Predicted treatment effect relative to placebo ([2]; 4 mg bid, over 65 weeks): ~5 ADAS-cog units
- ADAS-cog Difference ± SEM, Cmax,ss above vs below 0.373 ng/mL [2, 3]: −2.99 ± 0.67 ADAS-cog units
- ADCS-ADL Difference ± SEM, Cmax,ss above vs below 0.373 ng/mL [2, 3]: 0.54 ± 0.94
- LVV Difference ± SEM, Cmax,ss above vs below 0.373 ng/mL [2, 3]: −1.52 ± 0.34 cm^3
- WBV Difference ± SEM, Cmax,ss above vs below 0.373 ng/mL [2, 3]: 3.55 ± 1.06 cm^3
- ADCS-ADL Difference ± SEM, Cmax,ss above vs below 0.373 ng/mL [2, 4]: 1.22 ± 1.01
- LVV Difference ± SEM, Cmax,ss above vs below 0.373 ng/mL [2, 4]: −1.78 ± 0.38 cm^3
- WBV Difference ± SEM, Cmax,ss above vs below 0.373 ng/mL [2, 4]: 4.39 ± 1.18 cm^3
- EC50 ([2]; LMTM combined with symptomatic treatments): 0.4 ± 0.05 ng/mL
- EC50 ([2]; LMTM monotherapy): 0.32 ± 0.01 ng/mL
- ADAS-cog11 Difference ± SEM, Cmax,ss above vs below 0.373 ng/mL [2, 5]: −3.52 ± 0.78
- ADCS-ADL23 Difference ± SEM, Cmax,ss above vs below 0.373 ng/mL [2, 5]: 1.32 ± 1.04
- LVV Difference ± SEM, Cmax,ss above vs below 0.373 ng/mL [2, 5]: −1.35 ± 0.37 cm^3
- WBV Difference ± SEM, Cmax,ss above vs below 0.373 ng/mL [2, 5]: 4.69 ± 1.21 cm^3
- ADAS-cog11 Difference ± SEM, Cmax,ss above vs below 0.373 ng/mL [2, 6]: −2.60 ± 1.16
- ADCS-ADL23 Difference ± SEM, Cmax,ss above vs below 0.373 ng/mL [2, 6]: 0.46 ± 1.47
- LVV Difference ± SEM, Cmax,ss above vs below 0.373 ng/mL [2, 6]: −1.46 ± 0.45 cm^3
- WBV Difference ± SEM, Cmax,ss above vs below 0.373 ng/mL [2, 6]: 2.76 ± 1.66 cm^3
- ADAS-cog11 Difference ± SEM, low Cmax add-on vs high Cmax monotherapy [2, 7]: −7.53 ADAS-cog11 units and −7.53 ± 1.22 ADAS-cog11 units
- ADCS-ADL23 Difference ± SEM, low Cmax add-on vs high Cmax monotherapy [2, 7]: 6.14 ± 1.64
- LVV Difference ± SEM, low Cmax add-on vs high Cmax monotherapy [2, 7]: −3.15 ± 0.62 cm^3
- WBV Difference ± SEM, low Cmax add-on vs high Cmax monotherapy [2, 7]: 11.54 ± 1.87 cm^3
- Dose range in which the treatment response is estimated to be maximal ([2]; expanded Hill equation, ADAS-cog decline over 65 weeks): 20 to 60 mg/day
- Reduction of estimated maximum treatment effect when combined with symptomatic treatments, compared with monotherapy ([2]; expanded Hill equation, over 65 weeks): about 4 ADAS-cog units
- Temporal lobe FDG-PET decline ([2]; high dose LMTM (pooled 200 mg/day)): attenuated benefit otherwise seen for LMTM monotherapy
- Mean difference between monotherapy and add-on, ADAS-cog change ([2]; pooled 8 mg/day (4 mg bid), Studies 005 and 015, over 65 weeks): ~4 ADAS-cog units
